Measurements from a melting point compilation (Tetko et al.; mined from patent text by program, amines drawn as free bases though some values may be those of a salt).

Row | SMILES | melting point [°C]
1 | CCOC(=O)C(C#N)=NOS(C)(=O)=O | 79 to 83
2 | CCCc1c(OCCCCCC(=O)c2c(C)c(C)c(O)c(O)c2C)ccc(C(=O)O)c1O | 169 to 170
3 | CC(Oc1ncn(-c2ccc(Br)cc2)n1)C(=O)O (centres undefined) | 195 to 197
4 | CCOC(=O)C1=C2NCCN2CCC1 | 89
5 | CCCC[C@H]1CC[C@H](c2ccc(CCc3ccc(OC(F)F)cc3)cc2)CC1 | 32
6 | Cc1cc(C(F)(F)F)nn1CC(=O)N1CCC(c2csc(NC(=O)Cc3c(F)cccc3Cl)n2)CC1 | 249 to 251
7 | O=C(O)CCCCC(=O)Nc1ccc(C(=O)NN=C2C(=O)Nc3ccc(I)cc32)cc1 | 286
8 | CC1c2cc(OCC(=O)O)c(Cl)c(Cl)c2C(=O)C1(C)Cl (centres undefined) | 179 to 187
9 | CCCOc1ccc(C(=O)CBr)cc1 | 36 to 38
10 | O=P(O)(O)C1(P(=O)(O)O)CCCCCN1 | 275
11 | COc1cc(OC)c2c(=O)[nH]c(-c3ccc4[nH]nc(CO)c4c3)nc2c1 | 264 to 266
12 | O=c1ccc(-c2cccc(-n3ccnc3)c2)n[nH]1 | 234 to 236
13 | COc1cc(Nc2c(C#N)cnc3cc(-c4cc5ccccc5o4)sc23)c(Cl)cc1Cl | 281 to 282
14 | C=C(C)C(=O)OCCCCOC(=O)/C=C/c1ccc(OC(=O)OCC)cc1 | 54 to 56
15 | COc1ccc2c(Cc3c(Cl)cncc3Cl)nncc2c1C=CCCCc1ccccc1 | 121 to 123
16 | CCCN1CCCC(NC(=O)C(Cc2ccc(OCc3ccccc3)cc2)NC(=O)C(CC(C)C)N(C)Cc2ccc(N(C)C)cc2)C1 (centres undefined) | 131 to 133
17 | CCCOc1ccc(S(=O)(=O)N(C)C)cc1C1=NC(=O)C2=NC=NC2=N1 | 268 to 269
18 | COCOc1c(C(C)(C)C)cc(C=[N+]([O-])C(C)(C)C)cc1C(C)(C)C | 202 to 206

Now from value to molecule:

Row | melting point [°C] | SMILES
19 | 185 | O=C(O)Cc1csc(N=C2SC[C@@H]3Cc4ccccc4CN23)n1
20 | 144 to 152 | CCOC(=O)Nc1cc(C(C)=O)c2c(c1)N(NC(C)c1ccccc1)c1ccccc1CC2 (centres undefined)
21 | 141 | Cc1ccc(Cc2cc(C)c(C)c(=O)n2O)c(C)c1
22 | 100 to 102 | COc1ccc(CCOc2cccc(-c3cccc(C(=O)O)c3)c2)cc1OC
23 | 205 to 206 | NC(=O)Cc1ccc2c(c1)CCc1ccccc1O2
24 | 273 to 276 | CCOC(=O)c1cc2c(cn1)[nH]c1cccc(C=O)c12
25 | 323 to 326 | Cc1nc2c3c(c(C(=O)O)cc2n1C)CCC(c1ccccc1)O3 (centres undefined)
26 | 130 to 131 | COC(=O)[C@@H](Cc1ccccc1)NC(=O)[C@@H](Cc1c[nH]c2ccccc12)NC(=O)OCc1ccccc1
27 | 228 to 229 | COC(=O)C1=C(C#N)NC(C)=C(P2(=O)OCCCO2)C1c1ccccc1[N+](=O)[O-] (centres undefined)
28 | 105 to 106 | COc1ccc(N(C(=O)CCl)c2c(Cl)cccc2Cl)cc1
29 | 141 to 143 | COc1ccccc1N1CCN(c2nc3cccccc-3c2C#N)CC1
30 | 112 to 113 | COc1cc2ccccc2cc1OC
31 | 197 to 199 | O=C(NCc1cocn1)c1ccnc(N2CCN(Cc3ccc(F)cc3)C2=O)c1
32 | 142 | C=CCn1c(C)nc2c3c(c(C(=O)OC)cc21)CCC1(Cc2ccccc2C1)N3
33 | 81 | COC(=O)[C@@](N)(CCSC)C(=O)c1ccc(NC[C@@H]2C[C@@H](O)CN2C(=O)OC(C)(C)C)cc1-c1ccccc1
34 | 176 to 177 | O=C(Nc1cccnn1)N1CCN(c2nc(-c3cccc(F)c3)cs2)CC1
35 | 147 to 149 | CC(Oc1ccc(Oc2ccc(C(F)(F)F)cc2)cc1)C(N)=O (centres undefined)
36 | 136 | CCOC(=O)c1c(C(F)(F)F)nc(-c2cccs2)c(-c2ccccc2)c1O
37 | 149 to 151 | Cc1nc(-n2cnn(Cc3ccc(F)cc3)c2=O)sc1C(=O)NCc1cccc(N(C)C)c1
38 | 68 to 71 | CCOC(=N)N1Cc2ccccc2-c2ccccc2C1
39 | 127 to 128 | COc1cc(-c2ccc(C=O)o2)ccc1Br
